Experimental findings from ChEMBL document CHEMBL1129766, “SAR of 2-benzyl-4-aminopiperidines: CGP 49823, an orally and centrally active non-peptide NK1 antagonist” (Bioorg Med Chem Lett, 1996) are described below.

For assay [1], the target named is T1, Substance-K receptor (Bos taurus) (UniProt P05363).
T1 sequence (whole entry): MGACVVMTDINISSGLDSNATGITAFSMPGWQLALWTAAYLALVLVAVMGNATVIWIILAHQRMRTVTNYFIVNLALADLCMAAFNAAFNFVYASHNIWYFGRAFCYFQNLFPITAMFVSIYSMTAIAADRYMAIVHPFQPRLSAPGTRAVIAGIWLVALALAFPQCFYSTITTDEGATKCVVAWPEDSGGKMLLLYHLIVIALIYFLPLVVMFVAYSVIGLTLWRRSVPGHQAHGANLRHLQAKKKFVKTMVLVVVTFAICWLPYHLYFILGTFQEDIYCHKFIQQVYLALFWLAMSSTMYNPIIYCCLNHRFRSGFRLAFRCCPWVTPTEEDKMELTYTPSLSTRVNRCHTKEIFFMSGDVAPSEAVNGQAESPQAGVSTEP
The assay is described as follows: Compound was tested for inhibition of [125I]NKA radioligand binding to NK2 receptor from bovine bladder at 1 uM.

The next assay has as its target T2, Neuromedin-K receptor (Homo sapiens, UniProt P29371).
T2 sequence (P29371 whole entry): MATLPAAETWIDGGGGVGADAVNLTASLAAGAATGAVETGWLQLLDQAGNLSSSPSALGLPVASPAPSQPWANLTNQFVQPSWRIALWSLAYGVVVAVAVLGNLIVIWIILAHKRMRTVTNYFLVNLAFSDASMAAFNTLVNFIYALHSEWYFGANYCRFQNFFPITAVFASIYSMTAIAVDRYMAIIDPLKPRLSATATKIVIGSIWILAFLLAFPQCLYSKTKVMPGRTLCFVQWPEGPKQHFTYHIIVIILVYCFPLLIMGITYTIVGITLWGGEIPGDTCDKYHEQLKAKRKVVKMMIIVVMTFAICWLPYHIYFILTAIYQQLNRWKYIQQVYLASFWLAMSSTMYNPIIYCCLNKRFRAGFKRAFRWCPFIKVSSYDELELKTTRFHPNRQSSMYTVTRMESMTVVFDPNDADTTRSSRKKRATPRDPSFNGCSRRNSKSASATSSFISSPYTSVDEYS
The assay is described as follows: Compound was tested for inhibition of [125I]eledoisin radioligand binding to NK3 receptor from gerbil cortex; NA means no activity. Details: species or system Gerbillinae.

In assay [2] the test system is Gerbillinae. Put plainly: (§1) Tested for inhibition of thumping behavior in gerbils induced by iv administration of SP-methyl ester 2 hours after peroral administration of 30 mg/kg of the compound. The assay is classed as functional. The following applies: route oral.
In the next assay the test system is U373 MG. The assay is described as follows: Compound was tested for inhibition of substance P induced phosphatidyl inositol turnover in human U-373 cells. It is filed as functional, cell-based, U-373MG ATCC.
Assay [3] deals with Gerbillinae. Put plainly: Tested for inhibition of thumping behavior in gerbils induced by iv administration of SP-methyl ester 2 hours after intraperitoneal administration of 60 mg/kg of the compound. The assay is classed as functional.
In a further assay the target is T3, Substance-K receptor (Bos taurus, UniProt P05363).
T3 sequence (P05363 whole entry): T1 sequence (whole entry)
Put plainly: (§2) Compound was tested for inhibition of [125I]NKA radioligand binding to NK2 receptor from bovine bladder.

Assay [4] relates to Gerbillinae. Put plainly: Compound was tested for inhibition of thumping behavior in gerbils induced by iv administration of SP-methyl ester 2 hours after peroral administration of 30 mg/kg of the compound. It is filed as functional. The following applies: route oral.
In assay [5] the target is T1, Substance-K receptor (Bos taurus). The assay is described as §2. The following applies: concentration not given here.
The subject of assay [6] is Gerbillinae. The description is as §1. Details: dose 30 mg/kg, route oral. The assay is classed as functional, organism-based.
Assay [7] addresses T4, Neuromedin-K receptor (Homo sapiens) (UniProt P29371).
T4 sequence (whole entry): T2 sequence (P29371 whole entry)
The following applies: Gerbillinae.

The inhibition is the change of the read-out against control, counted positive when it falls. The low end stands for a weak effect, the high end for a strong effect. Broadly, the IC50 is the midpoint of a concentration-inhibition curve. Read a low IC50 as inhibition by little substance. The inhibition in vivo is the drop in the measured response relative to a control, in per cent. High values mean a response far below the control, low ones a response near the control.

The source made the active and inactive calls. No cut-off for these calls is given here.

Consider `COc1ccccc1CN[C@H]1C2CCN(CC2)[C@H]1C(c1ccccc1)c1ccccc1` [CP-96345], for which the inhibition in [1] worked out at 24%. In addition, the values for the IC50 entry at Neuromedin-K receptor and in the assay on U373 MG were “Not Active” and 9 nM, respectively. This compound yielded an inhibition in vivo at 30 mg/kg in the assay with Gerbillinae [2] of 61%.
`Cc1cc(C)cc(C(=O)N2CC[C@@H](NCc3ccnc4ccccc34)C[C@H]2Cc2ccccc2)c1` displayed an inhibition in vivo at 60 mg/kg in the assay on Gerbillinae [3] of 20%.
In the case of `O=C(N[C@H]1CCN(C(=O)c2cc(Cl)cc(Cl)c2)[C@H](Cc2ccccc2)C1)c1ccnc2ccccc12`, the IC50 in the assay with U373 MG was 24 nM; at Substance-K receptor it was 4500 nM. Further, at 30 mg/kg the inhibition in vivo in the assay on Gerbillinae [4] was 66%.
Regarding `O=C(N[C@H]1CCN(C(=O)c2cc(C(F)(F)F)cc(C(F)(F)F)c2)[C@H](Cc2ccccc2)C1)c1cc(O)nc2ccccc12`, the inhibition in [5] worked out at 28%. In the assay on Gerbillinae [4], the inhibition in vivo at 30 mg/kg came to 24%.
Regarding `Cc1cc(C)cc(C(=O)N2CC[C@H](NCc3cnc4ccccc4c3)C[C@H]2Cc2ccccc2)c1`, the inhibition in [5] was determined as 22%; in the assay with Gerbillinae [6] it was 21%. For the same compound, in the assay on U373 MG, the IC50 was 210 nM.
In the assay on Gerbillinae [2], `Cc1cc(C)cc(C(=O)N2CC[C@H](NCc3ccnc4ccccc34)C[C@H]2Cc2ccccc2)c1` showed an inhibition in vivo at 30 mg/kg of 34%. The half-inhibitory concentration (IC50) in the assay with U373 MG was 12 nM; at Substance-K receptor, 2790 nM.
On to `Cc1cc(C)cc(C(=O)N2CC[C@@H](NCc3ccnc4ccccc34)C[C@@H]2Cc2ccccc2)c1`, for which, in assay [1], the inhibition was 5%. This compound displayed an inhibition in vivo at 30 mg/kg in the assay with Gerbillinae [2] of 54%. Further, half-maximal inhibition in the assay with U373 MG (IC50) required 150 nM. Further, the NA entry in [7] was “inactive”.
